Our source for the IC50, Ki and inhibition values is patent US7238714B2, “Aryl or heteroaryl amide compounds” (Pfizer Japan, Inc., priority 2003, dated 2007).

Each structure is given as a SMILES string.

In general, IC50 refers to the concentration that gives 50% inhibition. By Ki is commonly meant the equilibrium dissociation constant of an inhibitor or competing ligand from its target. Low values mean a stronger hold on the target, high ones a looser hold on the target.

Experiment [1] deals with T1, hEP4 (Homo sapiens, UniProt P35408). As to the kind of experiment: cAMP assay in human EP4 transfectant (functional assay). Also noted: expressed in transfected cells; host or cells: HEK293 (hEP4 cells), selected with geneticin. As to conditions: vs 1 nM PGE2; for IC50: cAMP in HEK293 cells expressing human EP4. The format is cell-based. On the procedure: cAMP Assay in Human EP4 Transfectant
HEK293 cells expressing human EP4 receptors (hEP4 cells) are maintained in DMEM containing 10% FBS and 500 μg/ml geneticin. For harvesting hEP4 cells, culture medium is aspirated and cells in 75 cm^2 flask are washed with 10 ml of phosphate buffered saline (PBS). Another 10 ml of PBS is added to the cells and incubated for 20 min at room temperature. Human EP4 cells are harvested by pipetting and centrifuged at 300×g for 4 min. Cells are resuspended in DMEM without neutral red at a density of 7×10^5 cells/ml containing 0.2 mM IBMX (PDE inhibitor), 1 nM PGE2 and test compounds in PCR-tubes, and incubated at 37° C. for 10 min. The reaction is stopped by heating at 100° C. for 10 min with thermal cycler. Concentration of cAMP in reaction mixtures is determined with SPA cAMP Kit (Amersham) or cAMP Screen™ (Applied Biosystems) according to the manufacture's instruction. • Reference: Eur. J. Pharmacol. 340 (1997) 227–241
In general terms: Changes in cAMP serve as a functional read-out for many G protein-coupled receptors.

In experiment [2] the target is T1, hEP4. As to the kind of experiment: Human EP receptor cell membrane binding assay ([3H]-PGE2). On the set-up: expressed in transfected cells; membrane fraction. The settings on record: [3H]-PGE2 binding to membranes of human EP4/HEK293 transfectant; acidic and hypotonic buffer condition, MME buffer. The source says:
Human EP Receptor Cell Membrane Binding Assay:
Stable Expression of Human EP1, 2, 3 and 4 Receptors in the Human Embryonic Kidney (HEK293) Cell Line
The cDNA clones of human EP1, 2, 3 and 4 receptors are obtained by polymerase chain reaction (PCR) from […] kidney or heart cDNA libraries (Clontech). Human embryonic kidney cells (HEK 293) are stably transfected with expression vectors for human EP1, 2, 3 and 4 receptors in according to the method described in the article; the journal of biological chemistry vol. 271 No. 39, pp 23642–23645.
Preparation of Membrane Fraction:
The EP1, 2, 3 and 4 transfectant are grown in Dulbecco's modified Eagle's medium containing 10% fetal bovine serum, 50 U/ml penicillin, 50 μg/ml streptomycin and 500 μg/ml G418 (selection medium) at 37° C. in a humidified atmosphere of 5% CO2 in air. For the membrane preparation, cells are harvested with phosphate buffered saline (PBS) and centrifuged at 400×g for 5 min. The pellet is suspended with child (4° C.) PBS containing 1/100 volume of protease inhibitor cocktail (SIGMA) (1 mM (4-(2-aminoethyl)-benzenesulfonyl fluoride (AEBSF)), 0.8 μM Aprotinin, 22 μM Leupeptin, 40 μM Bestatin, 15 μM Pepstatin A and 14 μM E-64). Cells are lysed with ultrasonic cell disrupter for 60-sec sonication. Then cell mixtures are centrifuged at 1,000×g for 10 minutes. The supernatant μs centrifuged at 160,000×g for 30 minutes at 4° C. The pellet is resuspended in assay buffer (10 mM 2-morpholinoeth-anesulfonic acid (MES)-KOH, 1 mM etylenediamine tetra-acetic acid (EDTA), 10 mM MgCl2, pH 6.0), and protein concentration is determined by Bradford method (Bio-Rad assay). This membrane preparation is stored at −80° C. freezer until use for binding assay.
[^3H]-PGE2 membrane binding assays are performed in the reaction mixture of 10 mM MES/KOH (pH6.0), 10 mM MgCl2, 1 mM EDTA, 1 nM [^3H]-PGE2 (Amersham TRK431, 164 Ci/mmol), 2˜10 μg of protein from membrane fraction (human EP1, 2, 3 and 4/HEK293 transfectant) and test compound (total volume is 0.1 ml in 96 well polypropylene plate). Incubation is conducted for 60 min at room temperature prior to separation of the bound and free radioligand by rapid filtration through glass fiber filters (Printed Filtermat B, 1205-404, glass fiber, double thickness, size 102×258 mm, Wallac inc., presoaked in 0.2% polyethylenimine). Filters are washed with assay buffer and the residual [^3H]-PGE2 bound to the filter is determined by liquid scintillation counter (1205 Betaplate™). Specific binding is defined as the difference between total binding and nonspecific binding which is determined in the presence of 10 μM PGE2.

T1 sequence (P35408 whole entry): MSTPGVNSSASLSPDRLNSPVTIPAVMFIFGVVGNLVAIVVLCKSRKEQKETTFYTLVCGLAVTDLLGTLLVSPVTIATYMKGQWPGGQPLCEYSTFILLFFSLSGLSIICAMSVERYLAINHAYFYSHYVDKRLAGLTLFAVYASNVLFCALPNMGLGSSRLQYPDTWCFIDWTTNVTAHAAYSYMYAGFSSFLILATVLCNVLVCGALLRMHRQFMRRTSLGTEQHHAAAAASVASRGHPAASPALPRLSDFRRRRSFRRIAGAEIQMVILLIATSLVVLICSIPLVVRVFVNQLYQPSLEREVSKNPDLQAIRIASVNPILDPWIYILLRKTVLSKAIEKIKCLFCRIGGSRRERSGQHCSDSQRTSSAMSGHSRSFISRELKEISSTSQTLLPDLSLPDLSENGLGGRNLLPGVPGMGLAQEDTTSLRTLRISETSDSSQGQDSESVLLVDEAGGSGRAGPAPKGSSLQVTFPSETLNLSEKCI

`C[C@H](NC(=O)c1cc(Cl)cnc1Oc1cccc(-c2nccs2)c1)c1ccc(C(=O)O)cc1` [Example 45, 4-{(1S)-[({5-CHLORO-2-[3-(1,3-THIAZOL-2-YL)PHENOXY]PYRIDIN-3-YL}CARBONYL)AMINO]ETHYL}BENZOIC ACID] came in with an IC50 against hEP4 [1] of 28 nM. On hEP4 [2], this molecule came in with a Ki of 0.3 nM.

Molecule `C[C@H](NC(=O)c1cc(Cl)cnc1Oc1cccc(F)c1)c1ccc(C(=O)O)cc1` [Example 48, 4-[(1S)-1-({[5-CHLORO-2-(3-FLUOROPHENOXY)PYRIDIN-3-YL]CARBONYL}AMINO)ETHYL]BENZOIC ACID] returned an IC50 against hEP4 [1] of 19 nM. In addition, the Ki at hEP4 [2] was found to be 1 nM.

In turn, `C[C@H](NC(=O)c1cc(Cl)cnc1Oc1ccc(F)c(F)c1)c1ccc(C(=O)O)cc1` [Example 55, 4-[(1S)-1-({[5-CHLORO-2-(3,4-DIFLUOROPHENOXY)PYRIDIN-3-YL]CARBONYL}AMINO)ETHYL]BENZOIC ACID] returned an IC50 on hEP4 [1] of 20 nM. The molecule further came in with a Ki on hEP4 [2] of 0.7 nM.

In turn, `O=C(O)c1ccc(CNC(=O)c2cc(C(F)(F)F)cnc2Oc2ccc(F)cc2)cc1` [Example 56, 4-[({[2-(4-FLUOROPHENOXY)-5-(TRIFLUOROMETHYL)PYRIDIN-3-YL]CARBONYL}AMINO)METHYL]BENZOIC ACID] yielded a half-inhibitory concentration (IC50) against hEP4 [1] of 820 nM. The molecule also came in with a Ki on hEP4 [2] of 20 nM.

Consider `N#Cc1cnc(Oc2ccc(F)cc2)c(C(=O)NCc2ccc(C(=O)O)cc2)c1` [Example 57, 4-[({[5-CYANO-2-(4-FLUOROPHENOXY)PYRIDIN-3-YL]CARBONYL}AMINO)METHYL]BENZOIC ACID], for which the inhibition at 5 µM at hEP4 [1] (@ 5000 nM, read-out: functional assay human EP4 % Inh.) stood at 75%. Moreover, the IC50 against hEP4 [1] was found to be 1800 nM. In addition, the affinity at hEP4 [2] corresponds to a Ki of 92 nM.

The molecule `C[C@H](NC(=O)c1cc(Cl)ccc1Oc1ccc(F)cc1)c1ccc(C(=O)O)cc1` [Example 68, 4-((1S)-1-{[5-CHLORO-2-(4-FLUOROPHENOXY)BENZOYL]AMINO}ETHYL)BENZOIC ACID] came in with an IC50 at hEP4 [1] of 43 nM. At hEP4 [2], the Ki is 2.4 nM.

The molecule `O=C(NCc1ccc(-c2nn[nH]n2)cc1)c1cc(Cl)cnc1Oc1ccc(F)cc1` [Example 74, 5-CHLORO-2-(4-FLUOROPHENOXY)-N-[4-(2H-TETRAZOL-5-YL)BENZYL]NICOTINAMIDE] returned an IC50 against hEP4 [1] of 140 nM. This molecule came in with a Ki on hEP4 [2] of 4 nM.

`O=C(NCc1ccc(-c2nn[nH]n2)cc1)c1cc(Cl)ccc1Oc1ccc(F)cc1` [Example 76, 5-CHLORO-2-(4-FLUOROPHENOXY)-N-[4-(2H-TETRAZOL-5-YL)BENZYL]BENZAMIDE] registered an IC50 against hEP4 [1] of 100 nM. The same molecule had a Ki on hEP4 [2] of 1.8 nM.

`C[C@H](NC(=O)c1cc(Cl)cnc1Oc1cccc(F)c1)c1ccc(C(=O)NS(=O)(=O)c2cccc(Cl)c2)cc1` [Example 79, 5-CHLORO-N-{(1S)-1-[4-({[(3-CHLOROPHENYL)SULFONYL]AMINO}CARBONYL)PHENYL]ETHYL}-2-(3-FLUOROPHENOXY)NICOTINAMIDE] gave an IC50 against hEP4 [1] of 21 nM. On hEP4 [2], the Ki came out at 0.7 nM.

`C[C@H](NC(=O)c1cc(Cl)ccc1Cc1cccc(Cl)c1)c1ccc(C(=O)O)cc1` [Example 148, 4-((1S)-1-{[5-CHLORO-2-(3-CHLOROBENZYL)BENZOYL]AMINO}ETHYL)BENZOIC ACID] yielded an IC50 against hEP4 [1] of 3.6 nM. The affinity at hEP4 [2], expressed as Ki, was 0.7 nM.
